≈ marks a conversion by molar mass, not a printed value.
Key:
Format in all cases: functional
MCF7 [1] = experiment: In vitro cytotoxicity assay was measured against human tumor MCF-7 cell line using camptothecin as a standard; settings: read-out: TD50 (the source's name)
KB [2] = experiment: In vitro cytotoxicity assay was measured against human tumor KB cell line using camptothecin as a standard; settings: read-out: TD50 (the source's name)
HCT-116 [3] = experiment: In vitro cytotoxicity assay was measured against human tumor HCT116 cell line using camptothecin as a standard; settings: read-out: TD50 (the source's name)
L1210/Adr [4] = experiment: In vitro cytotoxicity assay was measured against human tumor L1210/Adr cell line using camptothecin as a standard; settings: Mus musculus, read-out: TD50 (the source's name)
L1210 [5] = experiment: In vitro cytotoxicity assay was measured against human tumor L1210 cell line using camptothecin as a standard; settings: Mus musculus, read-out: TD50 (the source's name)
MCF7 [6] = experiment: In vitro cytotoxicity assay was measured against human tumor MCF-7 cell line; settings: read-out: TD50 (the source's name)
L1210/Adr [7] = experiment: In vitro cytotoxicity assay was measured against human tumor L1210/Adr cell line; settings: Mus musculus, read-out: TD50 (the source's name)
HCT-116 [8] = experiment: In vitro cytotoxicity assay was measured against human tumor HCT116 cell line; settings: read-out: TD50 (the source's name)
KB [9] = experiment: In vitro cytotoxicity assay was measured against human tumor KB cell line; settings: read-out: TD50 (the source's name)
L1210 [10] = experiment: In vitro cytotoxicity assay was measured against human tumor L1210 cell line; settings: Mus musculus, read-out: TD50 (the source's name)

Compound	CC50 (MCF7 [1])	CC50 (KB [2])	CC50 (HCT-116 [3])	CC50 (L1210/Adr [4])	CC50 (L1210 [5])	CC50 (MCF7 [6])	CC50 (L1210/Adr [7])	CC50 (HCT-116 [8])	CC50 (KB [9])	CC50 (L1210 [10])
CCC1(O)C(=O)OCc2c1cc1n(c2=O)Cc2cc3cc(OCCNC(=O)S(=O)(=O)c4cccs4)ccc3nc2-1 (stereo not given)	100 ng/mL (≈ 172 nM)	0.5 ng/mL (≈ 0.86 nM)	0.01 ng/mL (≈ 0.0172 nM)	0.1 ng/mL (≈ 0.172 nM)	0.085 ng/mL (≈ 0.146 nM)	–	–	–	–	–
CCC1(O)C(=O)OCc2c1cc1n(c2=O)Cc2cc3cc(OCCNC(=O)c4ccc[nH]4)ccc3nc2-1 (stereo not given)	260 ng/mL (≈ 519 nM)	0.4 ng/mL (≈ 0.799 nM)	0.01 ng/mL (≈ 0.02 nM)	1 ng/mL (≈ 2 nM)	0.1 ng/mL (≈ 0.2 nM)	–	–	–	–	–
CCC1(O)C(=O)OCc2c1cc1n(c2=O)Cc2cc3cc(OCCNC(=O)C4CCCO4)ccc3nc2-1 (stereo not given)	900 ng/mL (≈ 1780 nM)	69 ng/mL (≈ 136 nM)	55 ng/mL (≈ 109 nM)	320 ng/mL (≈ 633 nM)	50 ng/mL (≈ 98.9 nM)	–	–	–	–	–
CCC1(O)C(=O)OCc2c1cc1n(c2=O)Cc2cc3cc(OCCNC(=O)c4cccs4)ccc3nc2-1 (stereo not given)	68 ng/mL (≈ 131 nM)	0.5 ng/mL (≈ 0.966 nM)	0.04 ng/mL (≈ 0.0773 nM)	1.5 ng/mL (≈ 2.9 nM)	0.1 ng/mL (≈ 0.193 nM)	–	–	–	–	–
CCC1(O)C(=O)OCc2c1cc1n(c2=O)Cc2cc3cc(OCCNC(=O)c4cccn4COC)ccc3nc2-1 (stereo not given)	120 ng/mL (≈ 220 nM)	5 ng/mL (≈ 9.18 nM)	0.7 ng/mL (≈ 1.29 nM)	15 ng/mL (≈ 27.5 nM)	1 ng/mL (≈ 1.84 nM)	–	–	–	–	–
CCC1(O)C(=O)OCc2c1cc1n(c2=O)Cc2cc3cc(OCCNC(=O)c4nccn4COC)ccc3nc2-1 (stereo not given)	750 ng/mL (≈ 1370 nM)	7 ng/mL (≈ 12.8 nM)	3 ng/mL (≈ 5.5 nM)	10 ng/mL (≈ 18.3 nM)	2 ng/mL (≈ 3.67 nM)	–	–	–	–	–
CCC1(O)C(=O)OCc2c1cc1n(c2=O)Cc2cc3cc(OCCNC(=O)c4cccn4C)ccc3nc2-1 (stereo not given)	140 ng/mL (≈ 272 nM)	0.5 ng/mL (≈ 0.972 nM)	0.01 ng/mL (≈ 0.0194 nM)	0.95 ng/mL (≈ 1.85 nM)	0.2 ng/mL (≈ 0.389 nM)	–	–	–	–	–
CCC1(O)C(=O)OCc2c1cc1n(c2=O)Cc2cc3cc(OCCNC(=O)c4ccco4)ccc3nc2-1 (stereo not given)	820 ng/mL (≈ 1640 nM)	5 ng/mL (≈ 9.97 nM)	1 ng/mL (≈ 1.99 nM)	15 ng/mL (≈ 29.9 nM)	4 ng/mL (≈ 7.98 nM)	–	–	–	–	–
CCC1(O)C(=O)OCc2c1cc1n(c2=O)Cc2cc3cc(OCCNC(=O)/C=C/c4ccco4)ccc3nc2-1 (stereo not given)	1000 ng/mL (≈ 1900 nM)	83 ng/mL (≈ 157 nM)	65 ng/mL (≈ 123 nM)	140 ng/mL (≈ 265 nM)	50 ng/mL (≈ 94.8 nM)	–	–	–	–	–
CC[C@@]1(O)C(=O)OCc2c1cc1n(c2=O)Cc2cc3ccccc3nc2-1 [CAMPTOTHECIN]	–	–	–	–	–	10 ng/mL (≈ 28.7 nM)	45 ng/mL (≈ 129 nM)	6 ng/mL (≈ 17.2 nM)	8 ng/mL (≈ 23 nM)	10 ng/mL (≈ 28.7 nM)
COc1cccc2c1C(=O)c1c(O)c3c(c(O)c1C2=O)C[C@@](O)(C(=O)CO)C[C@@H]3O[C@H]1C[C@H](N)[C@H](O)[C@H](C)O1 [DOXORUBICIN]	150 ng/mL (≈ 276 nM)	15 ng/mL (≈ 27.6 nM)	30 ng/mL (≈ 55.2 nM)	400 ng/mL (≈ 736 nM)	6 ng/mL (≈ 11 nM)	–	–	–	–	–
